Measurements: PMC6863902, “Functional and structural basis of E. coli enolase inhibition by SF2312: a mimic of the carbanion intermediate” (Scientific Reports, 2019)
Where “and” joins values, the source holds several entries; their conditions need not be identical. Identical values can stand only once. Like-named read-outs stand apart in the source and are kept apart here.

Tests used:
A. baumannii ATCC 19606 = experiment: MIC, microdilution broth assay; format: cell-based, Acinetobacter baumannii
From the text: (§1) To evaluate the activity of SF2312 against Gram-positive and Gram-negative bacteria, we have determined the minimal inhibitory concentration (MIC) for Escherichia coli ATCC 25922, Staphylococcus aureus ATCC […], Pseudomonas aeruginosa ATCC 27853, and Acinetobacter baumannii ATTC 19606 using the microdilution broth assay based on Clinical and Laboratory Standards Institute. Concentrations of SF2312 and the standard antibiotics tested were serially diluted to the following ranges: SF2312, 300 to 0.2 μg/mL; trimethoprim 10 to 0.01 μg/mL and fosfomycin, 20 to 0.040 μg/mL. For synergy studies, using the checkerboard method the following concentration range was used: fosfomycin 10 to 0.156 μg/mL and SF2312 100 to 0.05 μg/mL. The cation-adjusted Mueller-Hinton broth was supplemented with 25 μg/mL glucose-6-phosphate. Growth was monitored at Abs 600 nm. The MIC of each antimicrobial agent alone and in combination was defined as the lowest concentration that inhibited visible growth of the organism and were determined in duplicate.

E. coli ATCC 25922 [1] = experiment: Checkerboard synergy of SF2312 with fosfomycin; format: cell-based, Escherichia coli; settings: for MIC: Escherichia coli; for maximum drop of E. coli MIC when co-administered: SF2312 co-administered with fosfomycin
Description: It should be noted that the target of fosfomycin, UDP-N-acetylglucosamine enolpyruvyl transferase (MurA), acts immediately downstream of enolase utilizing PEP in the first step of peptidoglycan synthesis. Since targeting two sequential enzymes in the same metabolic pathway can be a powerful synergistic mechanism for two antibiotics, an evidence for synergy between SF2312 and fosfomycin was assessed by the checkerboard method. […] The observed synergy supports the notion that the antibacterial activity of SF2312 is due to the inhibition of enolase since, fosfomycin is known to have minimal to no effect on the enzymes utilizing PEP, such as enolase.
as §1
The definition of synergy used in these studies was the fractional inhibitory concentration (FIC) index, represented by the formula FIC= (MIC of fosfomycin in combination/MIC of fosfomycin alone) + (MIC of SF2312 in combination/MIC of the SF2312 alone). A calculated FIC index of less than 0.5 represented a synergistic effect (i.e., total effect greater than the sum of the individual antibiotic effects), a value between 0.5–2 represented an additive effect (i.e. no additional contribution from including the second antibiotic, compared with when the first antibiotic. A value greater than 2 represented an antagonistic effect (i.e., total effect less than the sum of the individual effects)[26].

P. aeruginosa ATCC 27853 = experiment: MIC, microdilution broth assay; format: cell-based, Pseudomonas aeruginosa
From the text: as §1

S. aureus ATCC 43300 = experiment: MIC, microdilution broth assay; format: cell-based; settings: Staphylococcus aureus
From the text: as §1

E. coli ATCC 25922 [2] = experiment: MIC, microdilution broth assay; format: cell-based; settings: Escherichia coli
From the text: as §1

ENO1-rescued cells = tested on: ENO1-rescued cells; set-up: method as in earlier work; settings: isogenic ENO1-rescued glioma cells; ref 5 (Leonard et al.); cited from earlier work
[3] = target: T1, recombinant E. coli enolase (Escherichia coli, UniProt P0A6P9); experiment: Differential scanning calorimetry thermal unfolding of enolase with inhibitors; format: binding; settings: for protein thermal melting point (Tm): enolase 6 μM with ligand 60 μM, apo enolase 52.7 °C; for shift of thermal melting point: versus enolase without inhibitor (∼53 °C)
T1 construct: made in house
Description: We used differential scanning calorimetry to analyze the direct in vitro binding of SF2312 and KSF to recombinant E. coli enolase (see Fig. 3). […] Upon overnight treatment with SF2312, the protein thermal melting point was ~82 °C, a shift of ∼29 °C.
The DCS experiment was performed as described previously. Prior to analysis, purified E. coli enolase was buffer exchanged into 20 mM HEPES (pH 7.0), 50 mM NaCl and 2 mM MgCl2. The concentrations of protein and ligand were adjusted to 6 μM and 60 μM, respectively. Protein samples with and without ligand were heated from 0–120 °C at 1 °C/min using a NanoDSC instrument (TA instruments). The samples were degassed for 15 minutes prior to injection into the calorimeter cell. The reference cell was filled with buffer for all runs. A pressure of 3 atm was applied to both cells during the run. The excess heat capacity scans for the protein transitions were obtained by subtracting a control scan of buffer versus buffer. The data were corrected for the difference in heat capacity between the initial and the final state by using a sigmoid baseline in the NanoAnalyze software (TA instruments) and a two-state transition model was used to determine the denaturation temperature (Tm) (Fig. 3).

[4] = target: T1, recombinant E. coli enolase; experiment: E. coli enolase enzymatic inhibition assay (PEP absorbance at 240 nm); format: biochemical; settings: for IC50: enolase 40 nM, 0.5 mM 2-PGA, 25 °C; for Ki: from IC50 by Cheng-Prusoff equation and KM
Description: To assess the relative affinity of SF2312 and KSF for enolase, the inhibitory constant, Ki, was determined from IC50 values using the Cheng-Prusoff equation and KM values.
The activity and inhibition of E. coli enolase described in this study was carried out using the procedure as we previously reported. Briefly, enolase activity was measured at 25 °C in the forward (formation of PEP from 2‐PGA) direction by direct monitoring of the increase in PEP absorbance at 240 nm, using a DU 640 spectrophotometer (Beckman). The standard assay contained 50 mM Tris pH 8.0, 0.1 M KCl, 0.5 mM 2-PGA and 1 mM MgSO4. The reactions were carried out at a final volume of 500 μL. Initial velocities came from the slopes of linear progress curves of 1 minute duration. One unit of enolase activity was defined as the amount of protein which catalyzes the formation of 1 μmole PEP from 2-PGA in 1 minute. The concentration of PEP was determined using a molar extinction coefficient (Ɛ240nm = 1400 M^−1 cm^1).
Inhibition of enolase activity by SF2312 and its analog, KSF was performed at a constant enolase concentration of 40 nM. The compounds, supplied in water, were preincubated with protein at concentrations ranging from 2 nM to 20 µM for 5 minutes in the assay buffer consisting of 50 mM Tris pH 8.0, 0.1 M KCl and 1 mM MgSO4. The reaction was initiated by the addition of 0.5 mM 2-PGA. The decrease in enolase activity upon inhibition was monitored at 5 second intervals for a period of 5 minutes at λ =240 nm. The average half maximal inhibitory concentrations (IC50) was calculated from initial rates of absorbance increase plotted as a function of ligand concentration using GraphPad Prism software (Fig. 2). Ki values were calculated using the Cheng-Prusoff equation from the experimental IC50 and Km values.

[5] = CAHM media with 25 μg/mL Glucose-6-Phosphate

T1 sequence (P0A6P9 whole entry): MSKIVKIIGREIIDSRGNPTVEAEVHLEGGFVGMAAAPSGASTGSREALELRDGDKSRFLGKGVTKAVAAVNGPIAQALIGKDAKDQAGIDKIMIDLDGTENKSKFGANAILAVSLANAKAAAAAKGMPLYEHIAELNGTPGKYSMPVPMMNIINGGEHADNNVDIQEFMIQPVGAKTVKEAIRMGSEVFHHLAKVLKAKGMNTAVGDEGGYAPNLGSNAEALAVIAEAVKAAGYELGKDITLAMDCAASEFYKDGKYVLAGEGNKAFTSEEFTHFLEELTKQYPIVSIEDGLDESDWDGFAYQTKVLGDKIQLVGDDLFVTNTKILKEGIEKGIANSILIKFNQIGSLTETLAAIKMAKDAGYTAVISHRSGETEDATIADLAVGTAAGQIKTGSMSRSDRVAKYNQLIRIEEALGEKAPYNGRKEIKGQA

## C[C@@H]1O[C@@H]1P(=O)(O)O [fosfomycin]
A. baumannii ATCC 19606; Acinetobacter baumannii, ATCC19606, CAHM media without Glucose-6-Phosphate, read-out: MIC
  MIC: > 20 µg/mL
A. baumannii ATCC 19606; [5]
  MIC: >20 µg/mL
E. coli ATCC 25922 [1]; ATCC25922, checkerboard, partner agent 0 μg/mL, 25 μg/mL glucose-6-phosphate, read-out: MIC alone
  MIC: 1.25 µg/mL
E. coli ATCC 25922 [1]
  maximum drop of E. coli MIC when co-administered: 4 fold
P. aeruginosa ATCC 27853; [5]
  MIC: 5 µg/mL
P. aeruginosa ATCC 27853; Pseudomonas aeruginosa, ATCC27853, CAHM media without Glucose-6-Phosphate, read-out: MIC
  MIC: 5 µg/mL
S. aureus ATCC 43300; ATCC43300, CAHM media with 25 μg/mL Glucose-6-Phosphate, read-out: MIC
  MIC: 2.5 µg/mL
S. aureus ATCC 43300; ATCC43300, CAHM media without Glucose-6-Phosphate, read-out: MIC
  MIC: 20 µg/mL
E. coli ATCC 25922 [2]; ATCC25922, CAHM media with 25 μg/mL Glucose-6-Phosphate, read-out: MIC
  MIC: 1.25 µg/mL
E. coli ATCC 25922 [2]; ATCC25922, CAHM media without Glucose-6-Phosphate, read-out: MIC
  MIC: > 10 µg/mL

## O=C1C(P(=O)(O)O)CC(O)N1O (stereo not drawn) [SF2312, 3-Dihydroxyphosphoryl-1-,5-dihydroxy-2-pyrrolidone]
A. baumannii ATCC 19606; Acinetobacter baumannii, ATCC19606
  MIC: > 400 µg/mL
A. baumannii ATCC 19606; [5]
  MIC: >400 µg/mL
ENO1-rescued cells
  GI50: > 200 µM
E. coli ATCC 25922 [1]; ATCC25922, read-out: MIC alone
  MIC: 100 µg/mL
E. coli ATCC 25922 [1]
  maximum drop of E. coli MIC when co-administered: 16 fold
[3]
  protein thermal melting point (Tm): ~ 82 °C and 81.75 °C
  shift of thermal melting point: ~29 °C
[4]
  IC50: 0.0184 ± 0.00284 µM
  Ki: 0.0034 µM
P. aeruginosa ATCC 27853; [5]
  MIC: 50 µg/mL
P. aeruginosa ATCC 27853; Pseudomonas aeruginosa, ATCC27853
  MIC: 50 µg/mL
S. aureus ATCC 43300; ATCC43300, CAHM media with 25 μg/mL Glucose-6-Phosphate
  MIC: 20 µg/mL
S. aureus ATCC 43300; ATCC43300, CAHM media without Glucose-6-Phosphate
  MIC: 100 µg/mL
E. coli ATCC 25922 [2]; ATCC25922, CAHM media with 25 μg/mL Glucose-6-Phosphate
  MIC: 100 µg/mL
E. coli ATCC 25922 [2]; ATCC25922, CAHM media without Glucose-6-Phosphate
  MIC: 400 µg/mL

## O=C1CC(P(=O)(O)O)C(=O)N1O (stereo not drawn) [KSF, (1-hydroxy-2,5-dioxopyrrolidin-3-yl)phosphonic acid]
[3]
  protein thermal melting point (Tm): 70.85 °C
  shift of thermal melting point: ~18 °C
[4]
  IC50: 7.67 µM and 7.7 µM
  Ki: 1.4 µM
[4]; ratio of IC50 values
  loss in activity between SF2312 and KSF: over 400 fold
